Assays:
Type in all cases: in vivo
[1] = system: Kochia (Kochia scoparia); assay: Test A preemergence; details: Preemergence; for Plant response rating, Kochia: 125 g ai/ha, visual injury after approximately 10 d, 0 to 100 scale where 0 is no effect and 100 is complete control; for Kochia plant response rating (0 to 100 scale, 0 is no effect, 100 is complete control): 500 g ai/ha, visual injury approx. 10 d
Excerpt: (§1) Seeds of plant species selected from barnyardgrass (Echinochloa crus-galli), Kochia (Kochia scoparia), ragweed (common ragweed, Ambrosia elatior), ryegrass, Italian (Italian ryegrass, Lolium multiflorum), crabgrass, large (Digitaria sanguinalis), giant foxtail (Setaria faberii), green foxtail (Setaria viridis), morningglory (Ipomoea spp.), pigweed (Amaranthus retroflexus), velvetleaf (Abutilon theophrasti), wheat (Triticum aestivum), and corn (Zea mays) were planted into a blend of loam soil and sand and treated preemergence with a directed soil spray using test chemicals formulated in anon-phytotoxic solvent mixture which included a surfactant.
(§2) At the same time, plants selected from these crop and weed species and also blackgrass (Alopecurus myosuroides), and Galium (catchweed bedstraw, Galium aparine) were planted in pots containing the same blend of loam soil and sand and treated with postemergence applications of test chemicals formulated in the same manner. Plants ranged in height from 2 to 10 cm and were in the one- to two-leaf stage for the postemergence treatment. Treated plants and untreated controls were maintained in a greenhouse for approximately 10 d, after which time all treated plants were compared to untreated controls and visually evaluated for injury. Plant response ratings, summarized in Table A, are based on a 0 to 100 scale where 0 is no effect and 100 is complete control. A dash (-) response means no test result.

[2] = system: barnyardgrass (Echinochloa crus-galli); assay: Test A preemergence; details: Preemergence; for Plant response rating, Barnyardgrass: 125 g ai/ha, visual injury after approximately 10 d, 0 to 100 scale where 0 is no effect and 100 is complete control; for Barnyardgrass plant response rating (0 to 100 scale, 0 is no effect, 100 is complete control): 500 g ai/ha, visual injury approx. 10 d
Excerpt: as §1, §2

[3] = system: giant foxtail (Setaria faberii); assay: Test A preemergence; details: Preemergence; for Plant response rating, Foxtail, Giant: 125 g ai/ha, visual injury after approximately 10 d, 0 to 100 scale where 0 is no effect and 100 is complete control; for Foxtail, Giant plant response rating (0 to 100 scale, 0 is no effect, 100 is complete control): 500 g ai/ha, visual injury approx. 10 d
Excerpt: as §1, §2

[4] = system: pigweed (Amaranthus retroflexus); assay: Test A preemergence; details: Preemergence; for Plant response rating, Pigweed: 125 g ai/ha, visual injury after approximately 10 d, 0 to 100 scale where 0 is no effect and 100 is complete control; for Pigweed plant response rating (0 to 100 scale, 0 is no effect, 100 is complete control): 500 g ai/ha, visual injury approx. 10 d
Excerpt: as §1, §2

[5] = system: ragweed (common ragweed, Ambrosia elatior); assay: Test A preemergence; details: Preemergence; for Plant response rating, Ragweed: 125 g ai/ha, visual injury after approximately 10 d, 0 to 100 scale where 0 is no effect and 100 is complete control; for Ragweed plant response rating (0 to 100 scale, 0 is no effect, 100 is complete control): 500 g ai/ha, visual injury approx. 10 d
Excerpt: as §1, §2

[6] = system: ryegrass, Italian (Italian ryegrass, Lolium multiflorum); assay: Test A preemergence; details: Preemergence; for Plant response rating, Ryegrass, Italian: 125 g ai/ha, visual injury after approximately 10 d, 0 to 100 scale where 0 is no effect and 100 is complete control; for Ryegrass, Italian plant response rating (0 to 100 scale, 0 is no effect, 100 is complete control): 500 g ai/ha, visual injury approx. 10 d
Excerpt: as §1, §2

[7] = system: Galium (catchweed bedstraw, Galium aparine); assay: Test A postemergence; details: for Galium plant response rating: 125 g ai/ha, postemergence, visual injury rating on 0 to 100 scale (0 no effect, 100 complete control), approx. 10 d; for Plant response rating, Galium: Postemergence, 500 g ai/ha, 0 to 100 scale where 0 is no effect and 100 is complete control
Excerpt: as §1, §2

[8] = system: Kochia (Kochia scoparia); assay: Test A postemergence; details: for Kochia plant response rating: 125 g ai/ha, postemergence, visual injury rating on 0 to 100 scale (0 no effect, 100 complete control), approx. 10 d; for Plant response rating, Kochia: Postemergence, 500 g ai/ha, 0 to 100 scale where 0 is no effect and 100 is complete control
Excerpt: as §1, §2

[9] = system: barnyardgrass (Echinochloa crus-galli); assay: Test A postemergence; details: for Barnyardgrass plant response rating: 125 g ai/ha, postemergence, visual injury rating on 0 to 100 scale (0 no effect, 100 complete control), approx. 10 d; for Plant response rating, Barnyardgrass: Postemergence, 500 g ai/ha, 0 to 100 scale where 0 is no effect and 100 is complete control
Excerpt: as §1, §2

[10] = system: blackgrass (Alopecurus myosuroides); assay: Test A postemergence; details: for Blackgrass plant response rating: 125 g ai/ha, postemergence, visual injury rating on 0 to 100 scale (0 no effect, 100 complete control), approx. 10 d; for Plant response rating, Blackgrass: Postemergence, 500 g ai/ha, 0 to 100 scale where 0 is no effect and 100 is complete control
Excerpt: as §1, §2

[11] = system: corn (Zea mays); assay: Test A postemergence; details: for Corn plant response rating: 125 g ai/ha, postemergence, visual injury rating on 0 to 100 scale (0 no effect, 100 complete control), approx. 10 d; for Plant response rating, Corn: Postemergence, 500 g ai/ha, 0 to 100 scale where 0 is no effect and 100 is complete control
Excerpt: as §1, §2

[12] = system: giant foxtail (Setaria faberii); assay: Test A postemergence; details: for Foxtail, Giant plant response rating: 125 g ai/ha, postemergence, visual injury rating on 0 to 100 scale (0 no effect, 100 complete control), approx. 10 d; for Plant response rating, Foxtail, Giant: Postemergence, 500 g ai/ha, 0 to 100 scale where 0 is no effect and 100 is complete control
Excerpt: as §1, §2

[13] = system: pigweed (Amaranthus retroflexus); assay: Test A postemergence; details: for Pigweed plant response rating: 125 g ai/ha, postemergence, visual injury rating on 0 to 100 scale (0 no effect, 100 complete control), approx. 10 d; for Plant response rating, Pigweed: Postemergence, 500 g ai/ha, 0 to 100 scale where 0 is no effect and 100 is complete control
Excerpt: as §1, §2

[14] = system: ragweed (common ragweed, Ambrosia elatior); assay: Test A postemergence; details: for Ragweed plant response rating: 125 g ai/ha, postemergence, visual injury rating on 0 to 100 scale (0 no effect, 100 complete control), approx. 10 d; for Plant response rating, Ragweed: Postemergence, 500 g ai/ha, 0 to 100 scale where 0 is no effect and 100 is complete control
Excerpt: as §1, §2

[15] = system: ryegrass, Italian (Italian ryegrass, Lolium multiflorum); assay: Test A postemergence; details: for Ryegrass, Italian plant response rating: 125 g ai/ha, postemergence, visual injury rating on 0 to 100 scale (0 no effect, 100 complete control), approx. 10 d; for Plant response rating, Ryegrass, Italian: Postemergence, 500 g ai/ha, 0 to 100 scale where 0 is no effect and 100 is complete control
Excerpt: as §1, §2

[16] = system: wheat (Triticum aestivum); assay: Test A postemergence; details: for Wheat plant response rating: 125 g ai/ha, postemergence, visual injury rating on 0 to 100 scale (0 no effect, 100 complete control), approx. 10 d; for Plant response rating, Wheat: Postemergence, 500 g ai/ha, 0 to 100 scale where 0 is no effect and 100 is complete control
Excerpt: as §1, §2

[17] = system: barnyardgrass (Echinochloa crus-galli); assay: Test B flooded paddy test; details: Flood, 250 g ai/ha; 0 to 100 scale where 0 is no effect and 100 is complete control; 13 to 15 d
Protocol: (§3) Plant species in the flooded paddy test selected from rice (Oryra sativa), sedge, umbrella (small-flower umbrella sedge, Cyperus difformis), ducksalad (Heteranthera limosa), and barnyardgrass (Echinochloa crus-galli) were grown to the 2-leaf stage for testing. At time of treatment, test pots were flooded to 3 cm above the soil surface, treated by application of test compounds directly to the paddy water, and then maintained at that water depth for the duration of the test. Treated plants and controls were maintained in a greenhouse for 13 to 15 d, after which time all species were compared to controls and visually evaluated. Plant response ratings, summarized in Table B, are based on a scale of 0 to 100 where 0 is no effect and 100 is complete control. A dash (-) response means no test result.

[18] = system: ducksalad (Heteranthera limosa); assay: Test B flooded paddy test; details: Flood, 250 g ai/ha; 0 to 100 scale where 0 is no effect and 100 is complete control; 13 to 15 d
Protocol: as §3

[19] = system: rice (Oryra sativa); assay: Test B flooded paddy test; details: Flood, 250 g ai/ha; 0 to 100 scale where 0 is no effect and 100 is complete control; 13 to 15 d
Protocol: as §3

[20] = system: sedge, umbrella (small-flower umbrella sedge, Cyperus difformis); assay: Test B flooded paddy test; details: Flood, 250 g ai/ha; 0 to 100 scale where 0 is no effect and 100 is complete control; 13 to 15 d
Protocol: as §3

Compound: O=C1NCC(c2ccc(C(F)(F)F)c(F)c2)C1C(=O)Nc1cccc(F)c1F (racemic) [Compound 504]
- Plant response rating, Kochia [1]: 80
- Kochia plant response rating (0 to 100 scale, 0 is no effect, 100 is complete control) [1]: 80
- Plant response rating, Barnyardgrass [2]: 90
- Barnyardgrass plant response rating (0 to 100 scale, 0 is no effect, 100 is complete control) [2]: 90
- Plant response rating, Foxtail, Giant [3]: 90
- Foxtail, Giant plant response rating (0 to 100 scale, 0 is no effect, 100 is complete control) [3]: 90
- Plant response rating, Pigweed [4]: 80
- Pigweed plant response rating (0 to 100 scale, 0 is no effect, 100 is complete control) [4]: 100
- Plant response rating, Ragweed [5]: 40
- Ragweed plant response rating (0 to 100 scale, 0 is no effect, 100 is complete control) [5]: 50
- Plant response rating, Ryegrass, Italian [6]: 40
- Ryegrass, Italian plant response rating (0 to 100 scale, 0 is no effect, 100 is complete control) [6]: 70
- Galium plant response rating [7]: 70
- Plant response rating, Galium [7]: 70
- Kochia plant response rating [8]: 30
- Plant response rating, Kochia [8]: 60
- Barnyardgrass plant response rating [9]: 80
- Plant response rating, Barnyardgrass [9]: 90
- Blackgrass plant response rating [10]: 40
- Plant response rating, Blackgrass [10]: 60
- Corn plant response rating [11]: 70
- Plant response rating, Corn [11]: 70
- Foxtail, Giant plant response rating [12]: 90
- Plant response rating, Foxtail, Giant [12]: 90
- Pigweed plant response rating [13]: 60
- Plant response rating, Pigweed [13]: 70
- Ragweed plant response rating [14]: 30
- Plant response rating, Ragweed [14]: 40
- Ryegrass, Italian plant response rating [15]: 40
- Plant response rating, Ryegrass, Italian [15]: 40
- Wheat plant response rating [16]: 20
- Plant response rating, Wheat [16]: 60
- Plant response rating, Barnyardgrass [17]: 40
- Plant response rating, Ducksalad [18]: 80
- Plant response rating, Rice [19]: 0
- Plant response rating, Sedge, Umbrella [20]: 0

Compound: O=C1NCC(c2ccnc(C(F)(F)F)c2)C1C(=O)Nc1ccccc1F (racemic) [Compound 513]
- Plant response rating, Kochia [1]: 0
- Kochia plant response rating (0 to 100 scale, 0 is no effect, 100 is complete control) [1]: 20
- Plant response rating, Barnyardgrass [2]: 40
- Barnyardgrass plant response rating (0 to 100 scale, 0 is no effect, 100 is complete control) [2]: 90
- Plant response rating, Foxtail, Giant [3]: 90
- Foxtail, Giant plant response rating (0 to 100 scale, 0 is no effect, 100 is complete control) [3]: 90
- Plant response rating, Pigweed [4]: 0
- Pigweed plant response rating (0 to 100 scale, 0 is no effect, 100 is complete control) [4]: 0
- Plant response rating, Ragweed [5]: 0
- Ragweed plant response rating (0 to 100 scale, 0 is no effect, 100 is complete control) [5]: 0
- Plant response rating, Ryegrass, Italian [6]: 20
- Ryegrass, Italian plant response rating (0 to 100 scale, 0 is no effect, 100 is complete control) [6]: 30
- Galium plant response rating [7]: 0
- Plant response rating, Galium [7]: 40
- Kochia plant response rating [8]: 20
- Plant response rating, Kochia [8]: 50
- Barnyardgrass plant response rating [9]: 80
- Plant response rating, Barnyardgrass [9]: 90
- Blackgrass plant response rating [10]: 20
- Plant response rating, Blackgrass [10]: 40
- Corn plant response rating [11]: 20
- Plant response rating, Corn [11]: 60
- Foxtail, Giant plant response rating [12]: 80
- Plant response rating, Foxtail, Giant [12]: 80
- Pigweed plant response rating [13]: 30
- Plant response rating, Pigweed [13]: 60
- Ragweed plant response rating [14]: 10
- Plant response rating, Ragweed [14]: 20
- Ryegrass, Italian plant response rating [15]: 0
- Plant response rating, Ryegrass, Italian [15]: 30
- Wheat plant response rating [16]: 0
- Plant response rating, Wheat [16]: 30
- Plant response rating, Barnyardgrass [17]: 30
- Plant response rating, Ducksalad [18]: 90
- Plant response rating, Rice [19]: 30
- Plant response rating, Sedge, Umbrella [20]: 0

Reference: patent US12077503B2, “Substituted cyclic amides and their use as herbicides” (FMC CORPORATION, priority 2015, dated 2024)
